Measured values published in patent publication US20230114728A1 (Venatorx Pharmaceuticals, Inc., priority 2019, published 2023).
Values after ≈ are worked out from the molar mass of the structure shown.

Legend:
[1] = test system: E. coli ATCC 25922; assay: Broth microdilution MIC in CAMHB; format: cell-based; conditions: Escherichia coli, ATCC25922; E. coli ATCC 25922; MHB; read-out: Minimum Inhibitory Concentration, E. coli 25922
Method in brief: (§1)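 Hyper-permeable or efflux-deficient strains serve to probe outer-membrane penetration. Growth inhibition is scored visually after 16-20 h at 37° C in CAMHB, starting from 2-8×10^5 CFU/mL.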

[2] = test system: P. aeruginosa ATCC 27853; assay: Broth microdilution MIC in CAMHB; format: cell-based; conditions: Pseudomonas aeruginosa, ATCC27853; MHB; read-out: Minimum Inhibitory Concentration, P. aeruginosa ATCC 27853
Method in brief: as §1

[3] = test system: P. aeruginosa (ΔmexAB-oprM); assay: Broth microdilution MIC in CAMHB; format: cell-based; conditions: Pseudomonas aeruginosa, read-out: Minimum Inhibitory Concentration, P. aeruginosa ΔmexAB-OprM
Method in brief: as §1

[4] = test system: K. pneumoniae 848844 producing SHV-11 and KPC-2; assay: Broth microdilution MIC in CAMHB; format: cell-based; conditions: Klebsiella pneumoniae, read-out: Minimum Inhibitory Concentration, K. pneumoniae 848844
Method in brief: as §1

[5] = test system: E. coli AG100A; assay: Broth microdilution MIC in CAMHB; format: cell-based; conditions: Escherichia coli, read-out: Minimum Inhibitory Concentration, E. coli AG100A
Method in brief: as §1

[6] = test system: P. aeruginosa ATCC 35151; assay: Broth microdilution MIC in CAMHB; format: cell-based; conditions: Pseudomonas aeruginosa, ATCC35151; MHB; hyper-permeable strain; read-out: Minimum Inhibitory Concentration, P. aeruginosa ATCC 35151
Method in brief: as §1

[7] = test system: K. pneumoniae UMM producing SHV-5 and KPC-2; assay: Broth microdilution MIC in CAMHB; format: cell-based; conditions: Klebsiella pneumoniae, read-out: Minimum Inhibitory Concentration, K. pneumoniae UMM
Method in brief: as §1

[8] = biological target: T1, P. aeruginosa PBP3 (Pseudomonas aeruginosa, UniProt G3XD46); assay: Bocillin-FL fluorescence polarization competition binding assay, P. aeruginosa PBP3; conditions: fluorescence polarization competition binding assay using Bocillin-FL
T1 construct: made in house
Method in brief: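 Inhibitor competition with Bocillin-FL for P. aeruginosa PBP3 was followed by fluorescence polarization on a Cytation3 (BioTek) reader, using g-factor 0.96, 490 nm excitation and 520 nm emission. The enzyme was at 0.75 μM and the probe at 0.1 μM in Hepes/NaCl/glycerol buffer, 80 μl per well. FP was recorded immediately after probe addition for up to 60 minutes. Potency was expressed as EC50, the concentration that reduces bound probe by 50%.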

T1 sequence (G3XD46 whole entry): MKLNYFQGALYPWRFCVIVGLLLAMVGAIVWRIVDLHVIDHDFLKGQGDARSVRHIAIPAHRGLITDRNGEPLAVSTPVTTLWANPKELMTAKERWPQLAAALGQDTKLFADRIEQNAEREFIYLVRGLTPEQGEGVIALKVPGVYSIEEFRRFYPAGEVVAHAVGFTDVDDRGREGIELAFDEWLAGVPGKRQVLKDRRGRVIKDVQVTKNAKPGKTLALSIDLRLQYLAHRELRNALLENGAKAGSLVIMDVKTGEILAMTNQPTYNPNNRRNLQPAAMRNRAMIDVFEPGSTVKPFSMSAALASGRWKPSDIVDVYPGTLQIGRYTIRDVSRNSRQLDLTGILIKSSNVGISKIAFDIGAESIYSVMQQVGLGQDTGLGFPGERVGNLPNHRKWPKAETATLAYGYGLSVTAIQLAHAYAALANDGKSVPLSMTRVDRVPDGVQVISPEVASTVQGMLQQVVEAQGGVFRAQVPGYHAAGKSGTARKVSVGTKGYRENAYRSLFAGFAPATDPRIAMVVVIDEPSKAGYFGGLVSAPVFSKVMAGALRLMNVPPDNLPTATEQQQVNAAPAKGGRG

Compound | MIC [1] | MIC [2] | MIC [3] | MIC [4] | MIC [5] | MIC [6] | MIC [7] | P. aeruginosa PBP3 Potency [8]
CCN1CCN(C(=O)N[C@H](C(=O)N[C@H]2Cc3cccc(C(=O)O)c3OB2O)c2ccc(C(=O)O)c(F)c2)C(=O)C1=O (single isomer, unassigned) [Example 147] | 32 to 64 µg/mL (≈ 56.1 to 112 µM) | > 128 µg/mL | 8 to 16 µg/mL (≈ 14 to 28.1 µM) | > 128 µg/mL | 2 to 4 µg/mL (≈ 3.51 to 7.01 µM) | < 0.25 µg/mL | 32 to 64 µg/mL (≈ 56.1 to 112 µM) | D (D represents a potency <10 μM)
CCN1CCN(C(=O)N[C@@H](C(=O)N[C@H]2Cc3cccc(C(=O)O)c3OB2O)c2cc(F)c(C(=O)O)cc2Cl)C(=O)C1=O (single isomer, unassigned) [Example 148] | > 128 µg/mL | > 128 µg/mL | 8 to 16 µg/mL (≈ 13.2 to 26.5 µM) | > 128 µg/mL | 8 to 16 µg/mL (≈ 13.2 to 26.5 µM) | < 0.25 µg/mL | 32 to 64 µg/mL (≈ 52.9 to 106 µM) | D (D represents a potency <10 μM)
CCN1CCN(C(=O)N[C@H](C(=O)N[C@H]2Cc3cccc(C(=O)O)c3OB2O)c2cc(F)c(C(=O)O)cc2Cl)C(=O)C1=O (single isomer, unassigned) [Example 149] | > 128 µg/mL | > 128 µg/mL | > 128 µg/mL | > 128 µg/mL | 32 to 64 µg/mL (≈ 52.9 to 106 µM) | 2 to 4 µg/mL (≈ 3.31 to 6.61 µM) | > 128 µg/mL | C (C represents a potency between 10 and 30 μM)
CCN1CCN(C(=O)N[C@@H](C(=O)N[C@H]2Cc3cccc(C(=O)O)c3OB2O)c2ccc(C(=O)O)cc2Cl)C(=O)C1=O (single isomer, unassigned) [Example 151] | > 128 µg/mL | > 128 µg/mL | 8 to 16 µg/mL (≈ 13.6 to 27.3 µM) | > 128 µg/mL | 8 to 16 µg/mL (≈ 13.6 to 27.3 µM) | 0.5 to 1 µg/mL (≈ 0.852 to 1.7 µM) | > 128 µg/mL | D (D represents a potency <10 μM)
CCN1CCN(C(=O)N[C@H](C(=O)N[C@H]2Cc3cccc(C(=O)O)c3OB2O)c2ccc(C(=O)O)cc2Cl)C(=O)C1=O (single isomer, unassigned) [Example 152] | > 128 µg/mL | > 128 µg/mL | 32 to 64 µg/mL (≈ 54.5 to 109 µM) | > 128 µg/mL | 32 to 64 µg/mL (≈ 54.5 to 109 µM) | 0.5 to 1 µg/mL (≈ 0.852 to 1.7 µM) | > 128 µg/mL | D (D represents a potency <10 μM)
CCN1CCN(C(=O)N[C@@H](C(=O)N[C@H]2Cc3cccc(C(=O)O)c3OB2O)c2ccc(C(=O)O)c(Cl)c2)C(=O)C1=O (single isomer, unassigned) [Example 154] | 32 to 64 µg/mL (≈ 54.5 to 109 µM) | > 128 µg/mL | 8 to 16 µg/mL (≈ 13.6 to 27.3 µM) | > 128 µg/mL | 8 to 16 µg/mL (≈ 13.6 to 27.3 µM) | < 0.25 µg/mL | 32 to 64 µg/mL (≈ 54.5 to 109 µM) | D (D represents a potency <10 μM)
CCN1CCN(C(=O)N[C@H](C(=O)N[C@H]2Cc3cccc(C(=O)O)c3OB2O)c2ccc(C(=O)O)c(Cl)c2)C(=O)C1=O (single isomer, unassigned) [Example 155] | > 128 µg/mL | > 128 µg/mL | 8 to 16 µg/mL (≈ 13.6 to 27.3 µM) | > 128 µg/mL | 8 to 16 µg/mL (≈ 13.6 to 27.3 µM) | 0.5 to 1 µg/mL (≈ 0.852 to 1.7 µM) | > 128 µg/mL | D (D represents a potency <10 μM)
NCCN1CCN(C(=O)N[C@H](C(=O)N[C@H]2Cc3cccc(C(=O)O)c3OB2O)c2cc(F)c(O)c(F)c2)C(=O)C1=O (single isomer, unassigned) [Example 158] | > 128 µg/mL | > 128 µg/mL | 32 to 64 µg/mL (≈ 55.6 to 111 µM) | > 128 µg/mL | 8 to 16 µg/mL (≈ 13.9 to 27.8 µM) | 0.5 to 1 µg/mL (≈ 0.869 to 1.74 µM) | > 128 µg/mL | C (C represents a potency between 10 and 30 μM)
NCCN1CCN(C(=O)N[C@@H](C(=O)N[C@H]2Cc3cccc(C(=O)O)c3OB2O)c2cc(F)c(O)c(F)c2)C(=O)C1=O (single isomer, unassigned) [Example 159] | 8 to 16 µg/mL (≈ 13.9 to 27.8 µM) | 32 to 64 µg/mL (≈ 55.6 to 111 µM) | 2 to 4 µg/mL (≈ 3.48 to 6.95 µM) | 32 to 64 µg/mL (≈ 55.6 to 111 µM) | 2 to 4 µg/mL (≈ 3.48 to 6.95 µM) | < 0.25 µg/mL | 8 to 16 µg/mL (≈ 13.9 to 27.8 µM) | D (D represents a potency <10 μM)
NCCN1CCN(C(=O)N[C@H](C(=O)N[C@H]2Cc3cccc(C(=O)O)c3OB2O)c2cc(Cl)c(O)c(Cl)c2)C(=O)C1=O (single isomer, unassigned) [Example 165] | > 128 µg/mL | > 128 µg/mL | 8 to 16 µg/mL (≈ 13.2 to 26.3 µM) | > 128 µg/mL | 8 to 16 µg/mL (≈ 13.2 to 26.3 µM) | 0.5 to 1 µg/mL (≈ 0.822 to 1.64 µM) | > 128 µg/mL | D (D represents a potency <10 μM)
